Results on two compounds are retold here after paper PMC2551328 (Biochemistry, 2008).

Some targets named below: M.tb PGDH G316V (Mycobacterium tuberculosis, UniProt P9WNX3, G315V); M.tb PGDH G317V (Mycobacterium tuberculosis, UniProt P9WNX3, G316V); M.tb PGDH G318V (Mycobacterium tuberculosis, UniProt P9WNX3, G317V); M.tb PGDH G316, 317V (Mycobacterium tuberculosis, UniProt P9WNX3, G315V/G316V); M.tb PGDH G317, 318V (Mycobacterium tuberculosis, UniProt P9WNX3, G316V/G317V); M.tb PGDH G316, 318V (Mycobacterium tuberculosis, UniProt P9WNX3, G315V/G317V); M.tb PGDH Y461A (Mycobacterium tuberculosis, UniProt P9WNX3, Y460A); M.tb PGDH D463A (Mycobacterium tuberculosis, UniProt P9WNX3, D462A); M.tb PGDH N481A (Mycobacterium tuberculosis, UniProt P9WNX3, N480A).

Common to all, as to assay type: biochemical

Structures are written as SMILES.

The Ki is a measure of affinity in units of concentration, obtained from inhibition or displacement. Low readings indicate higher affinity, high ones lower affinity. As usually defined, the Km is the substrate concentration at which the rate is half of its maximum. In general, kcat refers to the number of substrate molecules converted per active site and unit of time at saturation. As to `O=C(O)C(=O)COP(=O)(O)O` [HPAP, hydroxypyruvic acid phosphate], the Ki was 2230 ± 190 µM on M.tb PGDH G316V; 1110 ± 148 µM on M.tb PGDH G317V; 1920 ± 437 µM on M.tb PGDH G318V; 380 ± 45 µM at M.tb PGDH G316, 317V; 1620 ± 402 µM on M.tb PGDH G317, 318V; 220 ± 35 µM on M.tb PGDH G316, 318V. In addition, the Ki at M.tb PGDH Y461A was 420 ± 65 µM; on M.tb PGDH D463A, 1090 ± 165 µM; at M.tb PGDH N481A it was 2320 ± 337 µM. In addition, the Michaelis-Menten constant (Km) stood at 114 ± 4 µM on M.tb PGDH G316V; 165 ± 9 µM on M.tb PGDH G317V; 203 ± 23 µM on M.tb PGDH G318V; 610 ± 95 µM on M.tb PGDH G316, 317V; 220 ± 43 µM at M.tb PGDH G317, 318V; 470 ± 43 µM on M.tb PGDH G316, 318V. Besides, the Km on M.tb PGDH Y461A was 270 ± 60 µM; at M.tb PGDH D463A, 140 ± 10 µM; on M.tb PGDH N481A it was 120 ± 15 µM. Further, the kcat on M.tb PGDH G316V worked out at 1111 ± 30 s⁻¹; on M.tb PGDH G317V it was 2111 ± 119 s⁻¹; on M.tb PGDH G318V, 2349 ± 177 s⁻¹; on M.tb PGDH G316, 317V, 2805 ± 310 s⁻¹; at M.tb PGDH G317, 318V, 605 ± 27 s⁻¹; at M.tb PGDH G316, 318V, 2827 ± 197 s⁻¹. Besides, the catalytic constant (kcat) came out at 2754 ± 300 s⁻¹ at M.tb PGDH Y461A, 720 ± 89 s⁻¹ at M.tb PGDH D463A and 603 ± 77 s⁻¹ on M.tb PGDH N481A.
`N[C@@H](CO)C(=O)O` [L-serine, reference compound]: the “Hill Coefficient” value was 1.6 ± 0.1 at M.tb PGDH G316V; 1.5 ± 0.1 at M.tb PGDH G317V; 2.5 ± 0.1 at M.tb PGDH G318V; 1.7 ± 0.1 on M.tb PGDH G316, 317V; 1.9 ± 0.1 at M.tb PGDH G317, 318V; 1.9 ± 0.1 at M.tb PGDH G316, 318V. The “Hill Coefficient” value on M.tb PGDH Y461A was found to be 1.7 ± 0.1; on M.tb PGDH D463A it was 1.4 ± 0.1. Moreover, the “decrease in sensitivity to serine” value on M.tb PGDH G318V was “about 5 fold”.
